# ChEMBL document CHEMBL2010775, “Anti-proliferative effects of the novel ceramide analog (S)-2-(benzylideneamino)-3-hydroxy-N-tetrade-cylpropanamide in chemoresistant cancer” (2012)
# Activity calls are given as the source filed them. The rule behind the calls is not given here.
# Tests used:
# [1] = organism: Homo sapiens; experiment: Induction of apoptosis in human MCF-7TN-R cells assessed as decrease in viable cells after 48 hrs by DAPI staining method relative to control; format: functional, cell-based
# [2] = tested on: MDA-MB-468; experiment: Antiproliferative activity against human MDA-MB-468 cells assessed as decrease in Ki-67 staining after 48 hrs by immunofluorescence staining; format: functional; set-up: scale not given: the % may be the effect or the level left
# [3] = organism: Homo sapiens; experiment: Potentiation of doxorubicin-induced antiproliferative activity against human MCF-7TN-R cells after 24 hrs by MTT assay; format: functional, cell-based
# [4] = tested on: MDA-MB-231; experiment: Antiproliferative activity against human MDA-MB-231 cells assessed as decrease in Ki-67 staining after 48 hrs by immunofluorescence staining; format: functional; set-up: scale not given: the % may be the effect or the level left
# [5] = Antiproliferative activity against human MCF-7TN-R cells assessed as decrease in Ki-67 staining after 48 hrs by immunofluorescence staining; format: functional; set-up: scale not given: the % may be the effect or the level left
# [6] = organism: Homo sapiens; experiment: Potentiation of etoposide-induced antiproliferative activity against human MCF-7TN-R cells after 24 hrs by MTT assay; format: functional, cell-based
SMILES,Activity [1],Activity [2],Activity [3],Activity [4],Activity [5],Activity [6]
CCCCCCCCCCCCC/C=C/[C@@H](O)[C@H](CO)NC(=O)CCCCCCC,Active,29.08%,Active,46.6%,17.19%,Active
CCCCCCCCCCCCCCNC(=O)[C@H](CO)/N=C/c1ccccc1,Active,25.19%,Active,74.6%,19.28%,Active
